From patent US20190152992A1, “BENZODIOXANE DERIVATIVES AND THEIR PHARMACEUTICAL USE” (Orion Corporation, priority 2016, published 2019)

How the values were obtained:
human alpha2A receptors = molecular target: T1, human alpha2A receptors (Homo sapiens, UniProt P08913); assay: cell-based
T1 sequence (P08913 1-465): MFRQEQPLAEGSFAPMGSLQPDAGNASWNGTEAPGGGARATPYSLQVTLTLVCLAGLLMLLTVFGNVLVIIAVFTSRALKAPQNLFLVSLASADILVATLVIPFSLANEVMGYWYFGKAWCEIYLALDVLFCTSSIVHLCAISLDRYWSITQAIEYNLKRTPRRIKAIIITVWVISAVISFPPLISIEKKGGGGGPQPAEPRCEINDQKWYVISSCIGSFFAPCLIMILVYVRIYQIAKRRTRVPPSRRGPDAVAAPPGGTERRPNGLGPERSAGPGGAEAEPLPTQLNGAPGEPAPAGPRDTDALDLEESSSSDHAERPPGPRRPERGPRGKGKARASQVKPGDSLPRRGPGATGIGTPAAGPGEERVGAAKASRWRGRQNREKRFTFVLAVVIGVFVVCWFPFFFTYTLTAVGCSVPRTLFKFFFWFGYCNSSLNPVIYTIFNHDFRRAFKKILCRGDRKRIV
Procedure: Experiment 1: Determination of alpha2A and alpha2C Antagonistic Activity In Vitro
The growth medium was removed and the cells were incubated with the test compounds and the FLIPR Calcium 6 Assay reagent (Molecular Devices, CA, USA) for 2 h at 37° C. in dark. The test compounds (concentrations in cells 100 pM-10 μM) were dissolved in Probenecid-Ringer consisting of 150 mM NaCl, 3 mM KCl, 1.2 mM MgCl2, 1 mM CaCl2, 5 mM glucose, 20 mM HEPES and 2.5 mM probenecid (pH 7.4 adjusted with 1.0 M NaOH). […] All experiments were performed at 37° C. For agonism measurements the test compounds dissolved in Probenecid-Ringer were applied by FLIPR Tetra at 15 s time point. In order to determine antagonism, the cells were stimulated either with 100 nM adrenaline or noradrenaline and the test compounds were added to the cells 2 h before the experiment with the FLIPR Calcium 6 Assay reagent. […] Typically, there were four replicates at each concentration and six different dose levels. […] The minimum fluorescence value subtracted from the maximum value for each well was used in the calculations. ScreenWorks version 4.0 software was used for analyzing the results. Fitting of the antagonist dose-response results was performed with the free Hill equation and the IC50 values were fitted with IDBS XE software using model 200: y=(A+(B/(1+((x/C)̂D)))), where A is the curve maximum, B the curve minimum and C equals the EC50 value. D is slope factor (Hill). Kb was calculated with the Cheng-Prusoff equation Kb=A/((B/C)+1), where A is the IC50 of antagonist, B the concentration of agonist and C the EC50 of the agonist.

human alpha2C receptors = molecular target: T2, human alpha2C receptors (Homo sapiens, UniProt P18825); assay: Determination of alpha2C antagonistic activity in vitro (FLIPR calcium assay); details: for Kb: Alpha 2C Adrenaline Kb, Kb calculated from IC50 with the Cheng-Prusoff equation, adrenaline as agonist, CHO cells, human alpha2C
T2 sequence (P18825 1-462): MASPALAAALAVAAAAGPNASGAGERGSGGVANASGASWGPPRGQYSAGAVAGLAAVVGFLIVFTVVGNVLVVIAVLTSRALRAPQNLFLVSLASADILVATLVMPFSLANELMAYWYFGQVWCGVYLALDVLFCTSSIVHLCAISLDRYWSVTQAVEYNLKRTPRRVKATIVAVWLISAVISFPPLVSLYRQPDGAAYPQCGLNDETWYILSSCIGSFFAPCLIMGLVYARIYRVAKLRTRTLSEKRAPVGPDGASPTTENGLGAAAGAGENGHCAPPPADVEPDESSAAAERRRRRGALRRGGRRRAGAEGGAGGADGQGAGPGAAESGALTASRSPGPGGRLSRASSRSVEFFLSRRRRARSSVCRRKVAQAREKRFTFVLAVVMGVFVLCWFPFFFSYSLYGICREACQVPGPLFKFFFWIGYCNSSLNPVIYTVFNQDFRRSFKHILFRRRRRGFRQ

IC50 (human alpha2A receptors)	Kb (human alpha2A receptors)	IC50 (human alpha2C receptors)	Kb (human alpha2C receptors)	Compound
7190 nM	323 nM	1050 nM	105 nM	O=S1(=O)Nc2ccccc2N1[C@H]1CCCN(C[C@H]2COc3ccccc3O2)C1 [example 146, 1-((S)-1-(((S)-2,3-Dihydrobenzo[b][1,4]dioxin-2-yl)methyl)piperidin-3-yl)-1,3-dihydrobenzo[c][1,2,5]thiadiazole 2,2-dioxide]
8510 nM	382 nM	0.235 nM	0.024 nM	CC(C)(C)C1CN([C@H]2CCCN(C[C@H]3COc4ccccc4O3)C2)C(=O)O1 (stereo partly drawn) [example 18, 5-tert-Butyl-3-((S)-1-(((S)-2,3-dihydrobenzo[b][1,4]dioxin-2-yl)methyl)piperidin-3-yl)oxazolidin-2-one]
> 10000 nM	> 449 nM	1.54 nM	0.153 nM	O=C1C(=O)N([C@H]2CCCN(C[C@H]3COc4ccccc4O3)C2)CC1c1ccccc1 (stereo partly drawn) [example 38, 1-((S)-1-(((S)-2,3-Dihydrobenzo[b][1,4]dioxin-2-yl)methyl)piperidin-3-yl)-4-phenylpyrrolidine-2,3-dione]
> 10000 nM	> 449 nM	3580 nM	361 nM	CNCc1nc2ccc(Cl)cc2n1[C@H]1CCCN(C[C@H]2COc3ccccc3O2)C1 [example 153, 1-(6-Chloro-1-((S)-1-(((S)-2,3-dihydrobenzo[b][1,4]dioxin-2-yl)methyl)piperidin-3-yl)-1H-benzo[d]imidazol-2-yl)-N-methylmethanamine]
> 10000 nM	> 449 nM	1.63 nM	0.164 nM	Cc1nc2ncccc2n1[C@H]1CCCN(C[C@H]2COc3ccccc3O2)C1 [example 157, 1-((S)-1-(((S)-2,3-Dihydrobenzo[b][1,4]dioxin-2-yl)methyl)-piperidin-3-yl)-2-methyl-1H-imidazo[4,5-b]pyridine]
> 10000 nM	> 449 nM	10 nM	1.01 nM	CC(C)N1CC(=O)N([C@H]2CCCN(C[C@H]3COc4ccccc4O3)C2)C1=O [example 104, 3-((S)-1-(((S)-2,3-Dihydrobenzo[b][1,4]dioxin-2-yl)methyl)piperidin-3-yl)-1-isopropylimidazolidine-2,4-dione]
> 10000 nM	> 449 nM	1 nM	0.1 nM	CC1CCN([C@H]2CCCN(C[C@H]3COc4ccccc4O3)C2)C1=O (stereo partly drawn) [example 97, 1-((S)-1-(((S)-2,3-Dihydrobenzo[b][1,4]dioxin-2-yl)methyl)-piperidin-3-yl)-3-methylpyrrolidin-2-one]
2780 nM	125 nM	0.85 nM	0.09 nM	c1ccc2c(c1)OC[C@H](CN1CCC[C@H](n3nnc4ccccc43)C1)O2 [example 145, 1-((S)-1-(((S)-2,3-Dihydrobenzo[b][1,4]dioxin-2-yl)methyl)piperidin-3-yl)-1H-benzo[d][1,2,3]triazole]
> 10000 nM	> 449 nM	5.4 nM	0.544 nM	O=C1c2scnc2CN1[C@H]1CCCN(C[C@H]2COc3ccccc3O2)C1 [example 79, 5-((S)-1-(((S)-2,3-Dihydrobenzo[b][1,4]dioxin-2-yl)methyl)piperidin-3-yl)-4H-pyrrolo[3,4-d]thiazol-6(5H)-one]
> 10000 nM	> 449 nM	11.8 nM	1.19 nM	O=C1C=C(c2ccc(F)cc2)CN1[C@H]1CCCN(C[C@H]2COc3ccccc3O2)C1 [example 41, 1-((S)-1-(((S)-2,3-Dihydrobenzo[b][1,4]dioxin-2-yl)methyl)piperidin-3-yl)-4-(4-fluorophenyl)-1H-pyrrol-2(5H)-one]
> 10000 nM	> 449 nM	7.65 nM	0.771 nM	CC(C)C1CN([C@H]2CCCN(C[C@H]3COc4ccccc4O3)C2)C(=O)O1 (stereo partly drawn) [example 19, 3-((S)-1-(((S)-2,3-Dihydrobenzo[b][1,4]dioxin-2-yl)methyl)piperidin-3-yl)-5-isopropyloxazolidin-2-one]
> 10000 nM	> 449 nM	6.91 nM	0.696 nM	CC(=O)NCC1CN([C@H]2CCCN(C[C@H]3COc4ccccc4O3)C2)C(=O)O1 (stereo partly drawn) [example 20, N-((3-((S)-1-(((S)-2,3-Dihydrobenzo[b][1,4]dioxin-2-yl)methyl)piperidin-3-yl)-2-oxooxazolidin-5-yl)methyl)acetamide]
> 10000 nM	> 449 nM	1.58 nM	0.162 nM	O=C1C(=O)N([C@H]2CCCN(C[C@H]3COc4ccccc4O3)C2)C(=O)N1c1ccccc1 [example 129, 1-((S)-1-(((S)-2,3-Dihydrobenzo[b][1,4]dioxin-2-yl)methyl)-piperidin-3-yl)-3-phenylimidazolidine-2,4,5-trione]
> 10000 nM	> 449 nM	0.846 nM	0.085 nM	O=C1C(=O)N([C@H]2CCCN(C[C@H]3COc4ccccc4O3)C2)C(=O)N1Cc1ccccn1 [example 142, 1-((S)-1-(((S)-2,3-Dihydrobenzo[b][1,4]dioxin-2-yl)methyl)piperidin-3-yl)-3-(pyridin-2-ylmethyl)imidazolidine-2,4,5-trione]
> 10000 nM	> 449 nM	3.43 nM	0.346 nM	Cc1nc2cnccc2n1[C@H]1CCCN(C[C@H]2COc3ccccc3O2)C1 [example 158, 1-((S)-1-(((S)-2,3-Dihydrobenzo[b][1,4]dioxin-2-yl)methyl)piperidin-3-yl)-2-methyl-1H-imidazo[4,5-c]pyridine]
> 10000 nM	> 449 nM	< 0.1 nM	< 0.01 nM	O=c1[nH]c2c(F)cccc2n1[C@H]1CCCN(C[C@H]2COc3ccccc3O2)C1 [example 154, 1-((S)-1-(((S)-2,3-Dihydrobenzo[b][1,4]dioxin-2-yl)methyl)piperidin-3-yl)-4-fluoro-1H-benzo[d]imidazol-2(3H)-one]
1120 nM	50 nM	< 0.1 nM	< 0.01 nM	O=C1CN(Cc2ccccc2)C(=O)N1[C@H]1CCCN(C[C@H]2COc3ccccc3O2)C1 [example 118, 1-Benzyl-3-((S)-1-(((S)-2,3-dihydrobenzo[b][1,4]dioxin-2-yl)methyl)-piperidin-3-yl)imidazolidine-2,4-dione]
> 10000 nM	> 449 nM	0.32 nM	0.03 nM	CC1(C)CC(=O)N([C@H]2CCCN(C[C@H]3COc4ccccc4O3)C2)C1 [example 1, 1-((S)-1-(((S)-2,3-Dihydrobenzo[b][1,4]dioxin-2-yl)methyl)piperidin-3-yl)-4,4-dimethylpyrrolidin-2-one]
> 10000 nM	> 449 nM	0.294 nM	0.03 nM	c1ccc2c(c1)OC[C@H](CN1CCC[C@H](n3cnc4cncnc43)C1)O2 [example 161, 9-((S)-1-(((S)-2,3-Dihydrobenzo[b][1,4]dioxin-2-yl)methyl)-piperidin-3-yl)-9H-purine]
> 10000 nM	> 449 nM	0.16 nM	0.02 nM	C[C@H]1NC(=O)N([C@H]2CCCN(C[C@H]3COc4ccccc4O3)C2)C1=O [example 112, (R)-3-((S)-1-(((S)-2,3-Dihydrobenzo[b][1,4]dioxin-2-yl)methyl)-piperidin-3-yl)-5-methylimidazolidine-2,4-dione]
> 10000 nM	> 449 nM	2.79 nM	0.282 nM	COc1cc2c(cc1OC)C(=O)N([C@H]1CCCN(C[C@H]3COc4ccccc4O3)C1)C2 [example 68, 2-((S)-1-(((S)-2,3-Dihydrobenzo[b][1,4]dioxin-2-yl)methyl)piperidin-3-yl)-5,6-dimethoxyisoindolin-1-one]
> 10000 nM	> 449 nM	56 nM	5.64 nM	COc1ccc2nc(C)n([C@H]3CCCN(C[C@H]4COc5ccccc5O4)C3)c2n1 [example 155, 3-((S)-1-(((S)-2,3-Dihydrobenzo[b][1,4]dioxin-2-yl)methyl)piperidin-3-yl)-5-methoxy-2-methyl-3H-imidazo[4,5-b]pyridine]
> 10000 nM	> 449 nM	2.32 nM	0.232 nM	CC1=CC(=O)N([C@H]2CCCN(C[C@H]3COc4ccccc4O3)C2)C1 [example 40, 1-((S)-1-(((S)-2,3-Dihydrobenzo[b][1,4]dioxin-2-yl)methyl)piperidin-3-yl)-4-methyl-1H-pyrrol-2(5H)-one]

Compound	IC50 (human alpha2A receptors)	Kb (human alpha2A receptors)	IC50 (human alpha2C receptors)	Kb (human alpha2C receptors)
O=C1Cc2ccccc2N1[C@H]1CCCN(C[C@H]2COc3ccccc3O2)C1 [example 26, 1-((S)-1-(((S)-2,3-Dihydrobenzo[b][1,4]dioxin-2-yl)methyl)piperidin-3-yl)indolin-2-one]	> 10000 nM	> 449 nM	27.9 nM	2.81 nM
